Measured values as given in patent US20040110928A1, “Peptide conjugates for drug delivery” (priority 2000, published 2004).

Conditions: biotin tag reacted with fluorescently-labelled avidin
Protocol: In a separate experiment, two synthetic peptides were produced, and covalently attached to a biotin molecule. The sequences were:
The synthetic peptides were assessed for translocation by reacting the biotin tag with fluorescently-labelled avidin.

| Substance | Translocation |
| --- | --- |
| Biotin-spacer-TPKKASSPAAAAGAKKAKSP-amide [SEQ ID NO. 10] | no translocation was observed |
| Biotin-spacer-TPKKAKKPAAAAGASSAKSP-amide [SEQ ID NO. 11] | Translocation was observed |
